Assay results from publication PMC4392921 (Diabetes, 2014).

Test system: CD4+ T-cell clones specific for modified GAD65 epitopes
Test: T-cell clone proliferation assay, [3H]-thymidine incorporation
Type: cell-based, human
Conditions: GAD154E,164E-specific T cells (data not shown)

Substance: TTG-treated GAD: GAD65 protein unfolded by heating and treated with transglutaminase
- proliferation in response to treated GAD protein: not able to proliferate
